The source of these data is US20060052298A1, “Use of stable glutamine derivatives to improve drug absorption” (priority 2002, published 2006).

Data set [1] concerns small intestinal epithelial crypt cells (line IEC-6). As to the kind of experiment: IEC-6 cell migration after wounding (restitution model). Type of data set: cell-based. The conditions noted are these: IEC-6 cells, 2.5 mmol/liter. The source says:
In 1992, McCormack et al. established a model to study the process of cell migration involved in the early restitution of mucosal erosion. […] This model system is used in the present invention in order to show the important effect of stable glutamine derivatives on intestinal epithelial restitution. To investigate the ability of glutamine and stabilized glutamine derivatives to enhance the healing of mucosal tissues, a model system based on the migration of small intestinal epithelial crypt cells (line IEC-6) was used. The small epithelial crypt cell line (IEC-6 cells) was obtained from the American Type Culture Collection (Rockville, Md.). The medium consisted of Dullbecco's modified Eagle medium (DMEM) with 5% heat-inactivated FBS and 10 μg insulin and 50 μg gentamicin sulfate per milliliter. For the experiments, the cells were taken up with 0.25% trypsin plus 2.65 mM EDTA and plated at 6.25×10^4 cell/cm^2 in 35 mm dishes thinly coated with Matrigel according to the manufacturer's instructions. The cells were fed every other day. To initiate migration, the cell layer was scratched with a single razor blade cut to approximately 27 mm in length. The scratch began at the diameter of the dish and extended over an area 7 to 10 mm wide. After the scratch, the cells were washed twice with sterile PBS. Then, medium containing no supplemental substances or medium containing glutamine or alanyl-glutamine (2.5 mmol/liter) was replaced, and the dishes were returned to the incubator. The experiments were carried out in triplicate. After 6 hours, 8 hours, and 24 hours, the dishes were removed from the incubator, and photographed using an inverted phase contrast microscope attached with camera The migration cells in five contiguous 0.1-mm squares were counted at ×100 magnification beginning at the scratch line and extending as far out as the cells had migrated. The counting was done in the area of the highest migration rate by means of an eyepiece reticle.

Data set [2] in a line: 2-hour (peak) antiretroviral drug levels in blood. Particulars: for number of patients whose AZT levels did not improve (of eight): 14 patients taking AZT; for number of patients with an increase in their D4T levels / number of patients who did not increase their D4T levels: 15 patients on D4T; for number of patients whose 3TC levels did not improve / number of patients whose 3TC levels improved with therapy: 18 patients on 3TC; for drug levels improved, all ARV drugs including NNRTI and PI / mean percent improvement in antiretroviral drug levels / peak paired NRTI levels improved: after 7 days of study drug; for concentration at 2 h: blood, po, mean 2-hour drug level, oral ARV therapy. The source says: HUV positive patients on therapy presenting at the Hospital Sao Jose with diarrhea (≧3 stools/day×14 days) and wasting (loss of ≧10% of their body weight) from March 2001 to April 2002, were invited to participate. After informed consent, patients were assigned to one of four equi-nitrogenous blinded study groups including glycine controls (FIG. 1). Group A received 46 gm of oral glycine/day (Spectrum, Gardena, Calif.). Group B received 30 gm of oral glutamine/day (Cambridge Neutraceuticals, Cambridge, Mass.) and 15 gm of glycine, Group C received 4 grams alanyl-glutamine (Degussa/Creanova, Parsippany, N.J.) and 42 gm of glycine and Group D received 44 gm of alanyl-glutamine (Ala-Gln). The 44 gm alanyl-glutamine dose was calculated to contain equimolar glutamine to 30 gm of glutamine, and glycine was added to glutamine and low dose alanyl-glutamine groups to equalize the amount of nitrogen received by all participants.
Antiretroviral drug levels were determined at Tibotec-Virco, Mechelen, Belgium. Peak values were determined for each drug, and drug level ranges supplied by the manufacturer were used to define low levels. Viral genotype was determined by DNA sequencing at Visible Genetics, Suwanee, Ga. […] Two-tailed statistical analyses for comparison of paired values included Student's t-test and ANOVA and expressed as […] the standard deviation. Chi-square test or Fisher Exact test were used to compare proportions.

Data set [3] deals with HIV positive patients with diarrhea and wasting. Description: Clinical response by diarrhea frequency and consistency in AIDS patients with diarrhea and wasting. It is filed as in vivo, human. Particulars: 7 days; high dose Ala-Gln 44 gm/day; glycine controls 46 gm/day. From the text:
Patients were asked daily about the frequency and consistency of their diarrhea and other gastrointestinal complaints including anorexia, vomiting, and abdominal cramping. Changes in frequency of diarrhea was scored as 0 if the total number of stools in the second half of the 9-day study was less than 2 fewer (or greater) than the number in the first half of the study (including the 2 days before study treatment was started); scored as − or +1 if stool frequencies were reduced or increased by 2 to 3, respectively; and − or +2 if the frequencies were reduced or increased by >3, respectively. In addition, consistencies were graded as liquid, soft or formed and scored as 0, 1 or 2 respectively and changes were added to the frequency scores above. Intestinal permeability was measured by urinary excretion of lactulose, mannitol and their ratio as previously described (Lima et al., Am J Gastroenterol 1997; 92(10):1861-1866). Lactulose and mannitol in urine was determined by high performance liquid chromatography (HPLC) and at Great Smokies Diagnostic Laboratory, Asheville, N.C.

Data set [4] concerns salt and water absorption. Particulars: compared with glucose; cited from earlier work.
The conditions of data set [5]: compared with glutamine; cited from earlier work.
The subject of data set [6] is intestinal permeability. The conditions noted are these: over 28 days, cited from earlier work.
[7] abbreviates: high dose Ala-Gln, control group.
Where [8] appears, read: high dose Ala-Gln, Gln, glycine.
The mark [9] stands for this setting: high dose Ala-Gln 44 gm/day, Gln 30 gm/day (+15 gm glycine), glycine 46 gm/day.
The mark [10] stands for this setting: high dose Ala-Gln 44 gm/day, Gln 30 gm/day (+15 gm glycine), glycine controls 46 gm/day.
[11] abbreviates: low dose Ala-Gln 4 grams/day (+42 gm glycine).
The mark [12] stands for this setting: human, controls without diarrhea or wasting.
Setting [13] is: human, study patients with diarrhea and wasting.
[14] abbreviates: study patients with diarrhea and wasting.
Setting [15] is: all study groups together, 18 on 3TC, 15 on D4T, 14 on AZT.

Structures are written as SMILES. Where two headings read alike, the source gives them in different places. Peptide text beside a SMILES is read from it.

Take `C[C@H](N)C(=O)N[C@@H](CCC(N)=O)C(=O)O` [Ala-Gln, alanyl-glutamine] (H-Ala-Gln-OH): the “cell migration compared to control” value in data set [1] (6 hours, 8 hours, and 24 hours after the scratch) was “significantly enhanced cell migration”. Moreover, the “cell migration increase related to control” value in data set [1] (8 hours after the scratch) was 107%; in data set [1] (24 hours after the scratch), 173%. For the same compound, the “enhancement of cell migration, more than glutamine” value in data set [1] (after 6 hours) amounted to 46%; in data set [1] (after 8 hours), 55%. Moreover, the “number of patients whose AZT levels did not improve (of eight)” value in data set [2] (setting [7]) was 1; in data set [2] (low dose Ala-Gln) it was 3. Further, the “number of patients with an increase in their D4T levels” value in data set [2] (high dose Ala-Gln) and in data set [2] (low dose Ala-Gln) was 3 throughout. Also, the “number of patients who did not increase their D4T levels” value stood at 1 in data set [2] (setting [8]) and 2 in data set [2] (low dose Ala-Gln). The “number of patients whose 3TC levels did not improve” value in data set [2] (setting [8]) is reported as “none”; in data set [2] (low dose Ala-Gln) it was 3. Further, the “number of patients whose 3TC levels improved with therapy” value in data set [2] (setting [8]) turned out to be 2; in data set [2] (low dose Ala-Gln), 4. The “drug levels improved, all ARV drugs including NNRTI and PI” value (from here on “drug levels improved”) in data set [2] (setting [9]) is on record as 63%; in data set [2] (setting [11]), 50%. In addition, the “mean percent improvement in antiretroviral drug levels” value (“mean percent improvement” for short) in data set [2] (setting [10]) is on record as 113%; in data set [2] (setting [11]), 8%. Further, the “peak paired NRTI levels improved” value turned out to be 75% in data set [2] (setting [10]) and 55% in data set [2] (setting [11]). Also, in data set [3], the “patients improved (diarrhea frequency and consistency)” value was 89%. Also, the “drive of salt and water absorption” value in data set [4] is “comparable to, if not better, than glucose”. The “stability in acidic water solutions” value in data set [5] is “much more stable”.

Take `O=c1[nH]cnc2c1ncn2[C@H]1CC[C@@H](CO)O1` [ddI, didanosine, reference compound]: the figures for the concentration at 2 h in data set [2] (setting [12]) and in data set [2] (setting [13]) were 737 ± 226 ng/mL and 397 ± 151 ng/mL, respectively. Moreover, the “patients with drug levels below the expected range, in words” value (“patients … in words” for short) in data set [2] (setting [14]) is “All”.

In the case of `CC(C)c1nc(CN(C)C(=O)N[C@H](C(=O)N[C@@H](Cc2ccccc2)C[C@H](O)[C@H](Cc2ccccc2)NC(=O)OCc2cncs2)C(C)C)cs1` [ritonavir, reference compound], the “patients … in words” value in data set [2] (setting [14]) is listed as “All”.

For `O=C1Nc2ccc(Cl)cc2[C@@](C#CC2CC2)(C(F)(F)F)O1` [efavirenz, reference compound], the “patients with drug levels below the expected range (low drug levels)” value (“patients … (low drug levels)” below) in data set [2] (setting [14]) was determined as 85%.

With `NC(=O)CC[C@H](N)C(=O)O` [Gln, glutamine], in data set [2] (setting [8]), the “number of patients who did not increase their D4T levels” value came out at 3, the “number of patients whose 3TC levels did not improve” value was 2 and the “number of patients whose 3TC levels improved with therapy” value came out at 2. Besides, in data set [2] (setting [9]), the “drug levels improved” value was determined as 57%. Further, in data set [2] (setting [10]), the “mean percent improvement” value amounted to 14% and the “peak paired NRTI levels improved” value is given as 64.3%. Besides, the intestinal permeability result in data set [6] (4 g/day) is on record as “less worsening”. Further, in data set [6] (8 g/day), the absorption of mannitol entry is “improved” and the intestinal permeability entry was “stabilization”.

In the case of `Cc1c(O)cccc1C(=O)N[C@@H](CSc1ccccc1)[C@H](O)CN1C[C@H]2CCCC[C@H]2C[C@H]1C(=O)NC(C)(C)C` [nelfinavir, reference compound], the “patients … (low drug levels)” value in data set [2] (setting [14]) was 44%.

As to `NCC(=O)O` [glycine, reference compound], the “number of patients whose AZT levels did not improve (of eight)” value in data set [2] (setting [7]) was “half”. Also, in data set [2] (setting [8]), the “number of patients who did not increase their D4T levels” value is listed as 2, the “number of patients whose 3TC levels did not improve” value was 3 and the “number of patients whose 3TC levels improved with therapy” value amounted to 2. Further, the “drug levels improved” value in data set [2] (setting [9]) was determined as 20%. Also, in data set [2] (setting [10]), the “mean percent improvement” value was −32% and the “peak paired NRTI levels improved” value is recorded as 15.4%. For the same compound, the “patients improved (diarrhea frequency and consistency)” value in data set [3] is recorded as 38%.

As to `CC(C)(C)NC(=O)[C@@H]1C[C@@H]2CCCC[C@@H]2CN1C[C@@H](O)[C@H](Cc1ccccc1)NC(=O)[C@H](CC(N)=O)NC(=O)c1ccc2ccccc2n1` [saquinavir, reference compound], the “patients … in words” value in data set [2] (in vivo) is given as “All”.

Consider `Cc1cn([C@H]2C[C@H](N=[N+]=[N-])[C@@H](CO)O2)c(=O)[nH]c1=O` [AZT, zidovudine, reference compound], for which the “number of patients whose level of this ARV drug improved with therapy” value (“number of patients whose level … with therapy” below) in data set [2] (setting [15]) was “six”.

As for `Nc1ccn([C@@H]2CS[C@H](CO)O2)c(=O)n1` [3TC, lamivudine, reference compound], the “number of patients whose level … with therapy” value in data set [2] (setting [15]) came out at 10. Also, the figures for the concentration at 2 h in data set [2] (setting [12]) and in data set [2] (setting [13]) were 2810 ng/mL and 1500 ng/mL, respectively. The “patients … in words” value in data set [2] (setting [14]) was “All”.

For the compound `Cc1cn([C@H]2C=C[C@@H](CO)O2)c(=O)[nH]c1=O` [stavudine, reference compound], the “patients … (low drug levels)” value in data set [2] (human, in vivo, 2 h) turned out to be 20%. In addition, in data set [2] (in vivo), the “number of patients whose level … with therapy” value is on record as “seven”.
